The results in this text go back to the OligoGym collection.

Oligonucleotides are given in HELM: sugar(base)linkage, 5' to 3'; d 2'-deoxyribose, r ribose, m 2'-O-methylribose, p phosphate. ss, as = sense and antisense strand
Also: test concentration or dose not given here.

The target in this data set is TMEM63B. Kind of data set: reporter assay of Huesken 2005. As to conditions: siRNA. In general terms: A reporter such as luciferase makes a cellular process visible.
Consider “RNA1{r(C)p.r(C)p.r(U)p.r(G)p.r(A)p.r(A)p.r(G)p.r(G)p.r(A)p.r(C)p.r(U)p.r(U)p.r(C)p.r(A)p.r(A)p.r(C)p.r(G)p.r(U)p.r(G)p.d(T)p.d(T)}|RNA2{r(C)p.r(A)p.r(C)p.r(G)p.r(U)p.r(U)p.r(G)p.r(A)p.r(A)p.r(G)p.r(U)p.r(C)p.r(C)p.r(U)p.r(U)p.r(C)p.r(A)p.r(G)p.r(G)p.d(A)p.d(T)}$$$RNA1{StrandType:ss}|RNA2{StrandType:as}$”, for which the normalised inhibition (eCFP-eYFP dual reporter) was 84.5%.
Under “RNA1{r(C)p.r(C)p.r(U)p.r(G)p.r(C)p.r(U)p.r(C)p.r(A)p.r(U)p.r(G)p.r(U)p.r(A)p.r(C)p.r(A)p.r(U)p.r(G)p.r(A)p.r(U)p.r(C)p.d(T)p.d(T)}|RNA2{r(G)p.r(A)p.r(U)p.r(C)p.r(A)p.r(U)p.r(G)p.r(U)p.r(A)p.r(C)p.r(A)p.r(U)p.r(G)p.r(A)p.r(G)p.r(C)p.r(A)p.r(G)p.r(G)p.d(C)p.d(C)}$$$RNA1{StrandType:ss}|RNA2{StrandType:as}$” stands 73.1%.
For “RNA1{r(C)p.r(C)p.r(U)p.r(G)p.r(G)p.r(U)p.r(C)p.r(A)p.r(U)p.r(C)p.r(A)p.r(A)p.r(U)p.r(G)p.r(U)p.r(C)p.r(G)p.r(U)p.r(C)p.d(T)p.d(T)}|RNA2{r(G)p.r(A)p.r(C)p.r(G)p.r(A)p.r(C)p.r(A)p.r(U)p.r(U)p.r(G)p.r(A)p.r(U)p.r(G)p.r(A)p.r(C)p.r(C)p.r(A)p.r(G)p.r(G)p.d(C)p.d(A)}$$$RNA1{StrandType:ss}|RNA2{StrandType:as}$” the value was 60.4%.
The substance “RNA1{r(C)p.r(C)p.r(U)p.r(U)p.r(C)p.r(C)p.r(A)p.r(C)p.r(A)p.r(A)p.r(U)p.r(G)p.r(A)p.r(G)p.r(A)p.r(C)p.r(U)p.r(A)p.r(U)p.d(T)p.d(T)}|RNA2{r(A)p.r(U)p.r(A)p.r(G)p.r(U)p.r(C)p.r(U)p.r(C)p.r(A)p.r(U)p.r(U)p.r(G)p.r(U)p.r(G)p.r(G)p.r(A)p.r(A)p.r(G)p.r(G)p.d(T)p.d(G)}$$$RNA1{StrandType:ss}|RNA2{StrandType:as}$” gave a normalised inhibition (eCFP-eYFP dual reporter) of 72.3%.
For “RNA1{r(C)p.r(C)p.r(U)p.r(U)p.r(U)p.r(G)p.r(U)p.r(C)p.r(A)p.r(C)p.r(C)p.r(U)p.r(U)p.r(C)p.r(C)p.r(A)p.r(C)p.r(A)p.r(A)p.d(T)p.d(T)}|RNA2{r(U)p.r(U)p.r(G)p.r(U)p.r(G)p.r(G)p.r(A)p.r(A)p.r(G)p.r(G)p.r(U)p.r(G)p.r(A)p.r(C)p.r(A)p.r(A)p.r(A)p.r(G)p.r(G)p.d(C)p.d(C)}$$$RNA1{StrandType:ss}|RNA2{StrandType:as}$” the value was 74.2%; for “RNA1{r(C)p.r(G)p.r(A)p.r(G)p.r(G)p.r(C)p.r(U)p.r(G)p.r(U)p.r(G)p.r(A)p.r(G)p.r(C)p.r(A)p.r(G)p.r(G)p.r(U)p.r(G)p.r(G)p.d(T)p.d(T)}|RNA2{r(C)p.r(C)p.r(A)p.r(C)p.r(C)p.r(U)p.r(G)p.r(C)p.r(U)p.r(C)p.r(A)p.r(C)p.r(A)p.r(G)p.r(C)p.r(C)p.r(U)p.r(C)p.r(G)p.d(C)p.d(A)}$$$RNA1{StrandType:ss}|RNA2{StrandType:as}$”, 42.2%.
“RNA1{r(C)p.r(G)p.r(A)p.r(U)p.r(G)p.r(C)p.r(A)p.r(G)p.r(A)p.r(G)p.r(A)p.r(G)p.r(G)p.r(A)p.r(A)p.r(G)p.r(A)p.r(A)p.r(G)p.d(T)p.d(T)}|RNA2{r(C)p.r(U)p.r(U)p.r(C)p.r(U)p.r(U)p.r(C)p.r(C)p.r(U)p.r(C)p.r(U)p.r(C)p.r(U)p.r(G)p.r(C)p.r(A)p.r(U)p.r(C)p.r(G)p.d(A)p.d(G)}$$$RNA1{StrandType:ss}|RNA2{StrandType:as}$” yielded a normalised inhibition (eCFP-eYFP dual reporter) of 56.4%.
Under “RNA1{r(C)p.r(G)p.r(C)p.r(A)p.r(U)p.r(C)p.r(C)p.r(C)p.r(A)p.r(G)p.r(G)p.r(C)p.r(C)p.r(U)p.r(G)p.r(C)p.r(U)p.r(C)p.r(A)p.d(T)p.d(T)}|RNA2{r(U)p.r(G)p.r(A)p.r(G)p.r(C)p.r(A)p.r(G)p.r(G)p.r(C)p.r(C)p.r(U)p.r(G)p.r(G)p.r(G)p.r(A)p.r(U)p.r(G)p.r(C)p.r(G)p.d(C)p.d(A)}$$$RNA1{StrandType:ss}|RNA2{StrandType:as}$” stands 74.9%; under “RNA1{r(C)p.r(G)p.r(C)p.r(C)p.r(C)p.r(U)p.r(C)p.r(A)p.r(C)p.r(G)p.r(G)p.r(A)p.r(C)p.r(A)p.r(C)p.r(A)p.r(G)p.r(A)p.r(C)p.d(T)p.d(T)}|RNA2{r(G)p.r(U)p.r(C)p.r(U)p.r(G)p.r(U)p.r(G)p.r(U)p.r(C)p.r(C)p.r(G)p.r(U)p.r(G)p.r(A)p.r(G)p.r(G)p.r(G)p.r(C)p.r(G)p.d(T)p.d(C)}$$$RNA1{StrandType:ss}|RNA2{StrandType:as}$”, 59.1%.
Under “RNA1{r(C)p.r(G)p.r(C)p.r(U)p.r(A)p.r(C)p.r(A)p.r(A)p.r(G)p.r(G)p.r(A)p.r(G)p.r(G)p.r(A)p.r(U)p.r(G)p.r(A)p.r(U)p.r(C)p.d(T)p.d(T)}|RNA2{r(G)p.r(A)p.r(U)p.r(C)p.r(A)p.r(U)p.r(C)p.r(C)p.r(U)p.r(C)p.r(C)p.r(U)p.r(U)p.r(G)p.r(U)p.r(A)p.r(G)p.r(C)p.r(G)p.d(C)p.d(A)}$$$RNA1{StrandType:ss}|RNA2{StrandType:as}$” stands 79.3%.
As for “RNA1{r(C)p.r(G)p.r(C)p.r(U)p.r(C)p.r(A)p.r(G)p.r(G)p.r(U)p.r(G)p.r(C)p.r(U)p.r(G)p.r(C)p.r(A)p.r(G)p.r(G)p.r(A)p.r(C)p.d(T)p.d(T)}|RNA2{r(G)p.r(U)p.r(C)p.r(C)p.r(U)p.r(G)p.r(C)p.r(A)p.r(G)p.r(C)p.r(A)p.r(C)p.r(C)p.r(U)p.r(G)p.r(A)p.r(G)p.r(C)p.r(G)p.d(A)p.d(T)}$$$RNA1{StrandType:ss}|RNA2{StrandType:as}$”, the normalised inhibition (eCFP-eYFP dual reporter) worked out at 46.2%.
Under “RNA1{r(C)p.r(G)p.r(G)p.r(C)p.r(C)p.r(G)p.r(C)p.r(C)p.r(G)p.r(A)p.r(G)p.r(A)p.r(G)p.r(G)p.r(C)p.r(G)p.r(C)p.r(A)p.r(A)p.d(T)p.d(T)}|RNA2{r(U)p.r(U)p.r(G)p.r(C)p.r(G)p.r(C)p.r(C)p.r(U)p.r(C)p.r(U)p.r(C)p.r(G)p.r(G)p.r(C)p.r(G)p.r(G)p.r(C)p.r(C)p.r(G)p.d(A)p.d(G)}$$$RNA1{StrandType:ss}|RNA2{StrandType:as}$” stands 72.9%.
For “RNA1{r(C)p.r(G)p.r(U)p.r(G)p.r(U)p.r(G)p.r(U)p.r(A)p.r(A)p.r(A)p.r(U)p.r(G)p.r(C)p.r(C)p.r(A)p.r(G)p.r(G)p.r(G)p.r(C)p.d(T)p.d(T)}|RNA2{r(G)p.r(C)p.r(C)p.r(C)p.r(U)p.r(G)p.r(G)p.r(C)p.r(A)p.r(U)p.r(U)p.r(U)p.r(A)p.r(C)p.r(A)p.r(C)p.r(A)p.r(C)p.r(G)p.d(T)p.d(T)}$$$RNA1{StrandType:ss}|RNA2{StrandType:as}$” the value was 52.1%; for “RNA1{r(C)p.r(G)p.r(U)p.r(G)p.r(U)p.r(U)p.r(A)p.r(C)p.r(A)p.r(A)p.r(C)p.r(G)p.r(U)p.r(G)p.r(G)p.r(C)p.r(U)p.r(C)p.r(G)p.d(T)p.d(T)}|RNA2{r(C)p.r(G)p.r(A)p.r(G)p.r(C)p.r(C)p.r(A)p.r(C)p.r(G)p.r(U)p.r(U)p.r(G)p.r(U)p.r(A)p.r(A)p.r(C)p.r(A)p.r(C)p.r(G)p.d(G)p.d(G)}$$$RNA1{StrandType:ss}|RNA2{StrandType:as}$”, 91.6%; for “RNA1{r(C)p.r(U)p.r(A)p.r(G)p.r(C)p.r(U)p.r(C)p.r(C)p.r(C)p.r(A)p.r(C)p.r(G)p.r(U)p.r(C)p.r(U)p.r(A)p.r(U)p.r(G)p.r(U)p.d(T)p.d(T)}|RNA2{r(A)p.r(C)p.r(A)p.r(U)p.r(A)p.r(G)p.r(A)p.r(C)p.r(G)p.r(U)p.r(G)p.r(G)p.r(G)p.r(A)p.r(G)p.r(C)p.r(U)p.r(A)p.r(G)p.d(G)p.d(A)}$$$RNA1{StrandType:ss}|RNA2{StrandType:as}$”, 66.7%.
Under “RNA1{r(C)p.r(U)p.r(C)p.r(A)p.r(C)p.r(G)p.r(G)p.r(A)p.r(C)p.r(A)p.r(C)p.r(A)p.r(G)p.r(A)p.r(C)p.r(U)p.r(U)p.r(C)p.r(C)p.d(T)p.d(T)}|RNA2{r(G)p.r(G)p.r(A)p.r(A)p.r(G)p.r(U)p.r(C)p.r(U)p.r(G)p.r(U)p.r(G)p.r(U)p.r(C)p.r(C)p.r(G)p.r(U)p.r(G)p.r(A)p.r(G)p.d(G)p.d(G)}$$$RNA1{StrandType:ss}|RNA2{StrandType:as}$” stands 61.7%.
Substance “RNA1{r(C)p.r(U)p.r(C)p.r(C)p.r(G)p.r(U)p.r(U)p.r(G)p.r(A)p.r(C)p.r(U)p.r(U)p.r(U)p.r(G)p.r(A)p.r(C)p.r(C)p.r(A)p.r(A)p.d(T)p.d(T)}|RNA2{r(U)p.r(U)p.r(G)p.r(G)p.r(U)p.r(C)p.r(A)p.r(A)p.r(A)p.r(G)p.r(U)p.r(C)p.r(A)p.r(A)p.r(C)p.r(G)p.r(G)p.r(A)p.r(G)p.d(C)p.d(T)}$$$RNA1{StrandType:ss}|RNA2{StrandType:as}$” came in with a normalised inhibition (eCFP-eYFP dual reporter) of 98.6%.
Under “RNA1{r(C)p.r(U)p.r(C)p.r(C)p.r(U)p.r(C)p.r(U)p.r(U)p.r(C)p.r(U)p.r(U)p.r(C)p.r(C)p.r(U)p.r(C)p.r(A)p.r(C)p.r(C)p.r(A)p.d(T)p.d(T)}|RNA2{r(U)p.r(G)p.r(G)p.r(U)p.r(G)p.r(A)p.r(G)p.r(G)p.r(A)p.r(A)p.r(G)p.r(A)p.r(A)p.r(G)p.r(A)p.r(G)p.r(G)p.r(A)p.r(G)p.d(G)p.d(A)}$$$RNA1{StrandType:ss}|RNA2{StrandType:as}$” stands 68%; under “RNA1{r(C)p.r(U)p.r(C)p.r(U)p.r(A)p.r(C)p.r(U)p.r(A)p.r(C)p.r(G)p.r(C)p.r(C)p.r(U)p.r(A)p.r(C)p.r(C)p.r(U)p.r(G)p.r(C)p.d(T)p.d(T)}|RNA2{r(G)p.r(C)p.r(A)p.r(G)p.r(G)p.r(U)p.r(A)p.r(G)p.r(G)p.r(C)p.r(G)p.r(U)p.r(A)p.r(G)p.r(U)p.r(A)p.r(G)p.r(A)p.r(G)p.d(A)p.d(T)}$$$RNA1{StrandType:ss}|RNA2{StrandType:as}$”, 56.4%; under “RNA1{r(C)p.r(U)p.r(C)p.r(U)p.r(C)p.r(C)p.r(G)p.r(U)p.r(A)p.r(G)p.r(G)p.r(C)p.r(A)p.r(U)p.r(C)p.r(G)p.r(U)p.r(G)p.r(C)p.d(T)p.d(T)}|RNA2{r(G)p.r(C)p.r(A)p.r(C)p.r(G)p.r(A)p.r(U)p.r(G)p.r(C)p.r(C)p.r(U)p.r(A)p.r(C)p.r(G)p.r(G)p.r(A)p.r(G)p.r(A)p.r(G)p.d(G)p.d(A)}$$$RNA1{StrandType:ss}|RNA2{StrandType:as}$”, 75.8%.
